Laboratory results: US8481459B2, “Chemical inhibitors of ethylene biosynthesis” (Academia Sinica, priority 2010, dated 2013)

Tested on: gene expression in etiolated eto1-4 seedlings
Assay: Transcriptional profiling (ATH1 GeneChip microarray) of etiolated eto1-4 seedlings
Assay type: in vivo, Arabidopsis thaliana
Procedure: For chemical treatments, seeds were sown on 0.5×MS agar medium supplemented with 10 μM chemicals (AVG, compounds 9393, 9370, and 7303) or DMSO (as control). Arabidopsis seeds were stratified in the dark at 4° C. for 4 days, then germinated in the dark for 3 days at 22° C. Approximately 2,000 etiolated seedlings of the wild type or eto1-4 were used to collect tissues for preparation of total RNA in each microarray experiment with Arabidopsis ATH1 GeneChip (Affymetrix). Extraction of RNA followed an established protocol (Chang, et al. (1993) Plant Mol. Biol. Rep. 11, 113-117). Total RNA (10 μg) was used to prepare biotinylated cRNA for hybridization to ATH1 GeneChip in the experiments disclosed herein. Experiments were repeated by 2 independent biological duplicates, and candidate genes present in both experiments were selected for further analysis. The MASS method was used for data analysis and normalization by all sample medium. Candidate genes were selected by the following criteria. First, genes with 1.5-fold differential expression between the wild type and eto1-4 were selected as the master gene pool, which was then used for comparison in treatments with AVG and individual exemplary compounds. Data were presented in hierarchical clustering and Venn diagram format. Agilent GeneSpring GX and Bioconductor software were used to analyze the expression profile data. Gene Ontology descriptions were generated by GeneSpring GX and further referred to the TAR GO database. Raw data are available in the GEO database (http://www.ncbi.nlm.nih.gov/geo) with Accession no. GSE20897.
The filtered and normalized expression data set from 22810 probes on the ATH1 Genechip was used for hierarchical clustering of gene expression profiles for comparison between AVG and the exemplary invention compounds in eto1-4. It was identified that 1,446 genes show at least 1.5-fold difference in expression between the WT and eto1-4 and used them as the master gene pool for clustering analysis (FIG. 7A). […] These genes likely contribute to the etiolated phenotype of eto1-4 by responding to elevated endogenous ethylene. To determine whether the exemplary compounds have specific r overlapping functions with AVG to suppress the eto1-4 phenotype, genes that are regulated by individual exemplary invention compounds and AVG for Venn diagram analysis were clustered (FIG. 7B). More than 63% of genes (356/561 for compound 9393; 389/561 for compound 9370; 399/561 for compound 7303; FIG. 7B) with expression associated with AVG were co-regulated by the exemplary invention compounds, which indicates an overlap function in suppression of the ethylene phenotype in eto1-4. […] Next genes co-regulated by all of the exemplary invention compounds and AVG were examined by performing a clustering analysis using the co-regulated genes identified in FIG. 7B: 356 (compound 9393 vs AVG), 389 (compound 9370 vs AVG) and 399 genes (compound 7303 vs AVG). It was uncovered that 276 genes were co-regulated by all of the exemplary invention compounds and AVG (FIG. 7C and Table 2). On the basis of GO descriptions generated by Gene Spring GX and TAIR database, the 276 genes were divided into subgroups related to their biological functions (Table 2). […] In addition, stress- and pathogenesis-related genes were among the co-regulated genes, possibly because ethylene is involved in both biotic and abiotic stresses.
Genes (1446 non-redundant loci) were selected by 1.5-fold differential expression between eto1-4 and WT as the master pool for analysis. These genes were used for comparison between chemical treatments by AVG and the exemplary invention compounds. The finalized 276 genes that are co-regulated by AVG and all of the exemplary invention compounds are shown. Locus ID also present in Nemhauser et al. (Nemhauser, et al. (2006) Cell 126, 467-475).

[1] = of 1446 genes differentially expressed between WT and eto1-4, 10 μM
[2] = ratio eto1-4 treated to eto1-4 (no treatment)

## COc1ccc(C2CC(=O)c3cnc(Nc4ccccc4)nc3C2)cc1 (centres unmarked) [Compound 7303]
Of 561 genes associated with AVG, 10 μM
  number of genes co-regulated with AVG: 399 genes
[1]
  number of genes regulated (expression reverted close to WT): 650 genes
  percentage of genes regulated (expression reverted close to WT): 45.0%
Of all genes regulated by the compound (629, 728, 650), 10 μM
  number of genes regulated specifically, not related to AVG treatment: 251 genes
[2]
  Signal Fold Change AT1G03457, unknown biological function: 3.04
  Signal Fold Change AT1G03660, unknown biological function: 1.59
  Signal Fold Change AT1G05010 ACC oxidase: 0.30
  Signal Fold Change AT1G05760 jacalin lectin protein: 3.70
  Signal Fold Change AT1G06720 expressed protein: 1.26
  Signal Fold Change AT1G07280, unknown biological function: 0.37
  Signal Fold Change AT1G07560 leucine-rich repeat protein kinase: 1.99
  Signal Fold Change AT1G08650 phosphoenolpyruvate carboxylase kinase: 3.40
  Signal Fold Change AT1G08990 glycogenin glucosyltransferase: 2.60
  Signal Fold Change AT1G09530 phytochrome interacting factor 3: 0.29
  Signal Fold Change AT1G10760 starch excess protein (SEX1): 0.43
  Signal Fold Change AT1G13430, response to cytokinin stimulus, sulfotransferase protein: 0.34
  Signal Fold Change AT1G14540 anionic peroxidase: 0.42
  Signal Fold Change AT1G15380 lactoylglutathione lyase: 2.99
  Signal Fold Change AT1G17970, unknown biological function: 2.35
  Signal Fold Change AT1G18880 proton-dependent oligopeptide transport (POT) protein: 2.51
  Signal Fold Change AT1G20190, cell wall organization and biogenesis, expansin (EXP11): 0.43
  Signal Fold Change AT1G22740 Ras-related protein (RAB7): 3.52
  Signal Fold Change AT1G23060, unknown biological function: 0.35
  Signal Fold Change AT1G26930, unknown biological function: 0.40
  Signal Fold Change AT1G27380 p21-rho-binding domain-containing protein: 2.14
  Signal Fold Change AT1G29520, unknown biological function: 2.27
  Signal Fold Change AT1G30750, unknown biological function: 2.87
  Signal Fold Change AT1G31710 copper amine oxidase: 5.43
  Signal Fold Change AT1G32410 vacuolar protein sorting 55 protein: 1.75
  Signal Fold Change AT1G32560 late embryogenesis abundant group 1 domain-containing protein: 1.89
  Signal Fold Change AT1G33470, unknown biological function: 2.38
  Signal Fold Change AT1G33790, unknown biological function: 0.21
  Signal Fold Change AT1G34040, unknown biological function: 2.17
  Signal Fold Change AT1G35350, unknown biological function: 4.37
  Signal Fold Change AT1G35612, unknown biological function: 3.19
  Signal Fold Change AT1G42470, unknown biological function: 4.79
  Signal Fold Change AT1G44800, unknown biological function: 2.25
  Signal Fold Change AT1G44830 AP2-containing transcription factor: 0.38
  Signal Fold Change AT1G48480 leucine-rich repeat trans-membrane protein kinase: 3.43
  Signal Fold Change AT1G49660 expressed protein: 0.47
  Signal Fold Change AT1G50560 cytochrome P450: 2.50
  Signal Fold Change AT1G52830 auxin-responsive protein: 4.43
  Signal Fold Change AT1G56010 transcription activator NAC1: 2.97
  Signal Fold Change AT1G56020, unknown biological function: 0.49
  Signal Fold Change AT1G58070, unknown biological function: 2.37
  Signal Fold Change AT1G59590, unknown biological function: 3.94
  Signal Fold Change AT1G59740 proton-dependent oligopeptide transport (POT) protein: 0.32
  Signal Fold Change AT1G62290 aspartyl protease protein: 0.38
  Signal Fold Change AT1G62510 lipid transfer protein: 2.20
  Signal Fold Change AT1G62620, unknown biological function: 3.52
  Signal Fold Change AT1G64200 V-ATPase E subunit: 2.73
  Signal Fold Change AT1G65510, unknown biological function: 4.19
  Signal Fold Change AT1G65920, unknown biological function: 0.36
  Signal Fold Change AT1G66230 myb transcription factor (MYB20): 3.14
  Signal Fold Change AT1G67030 zinc finger (C2H2 type) protein: 10.77
  Signal Fold Change AT1G68230, unknown biological function: 2.59
  Signal Fold Change AT1G68520 zinc finger (B-box type) protein: 1.15
  Signal Fold Change AT1G69570 Dof-type zinc finger-containing protein: 6.31
  Signal Fold Change AT1G70210 cyclin delta-1: 3.72
  Signal Fold Change AT1G70850 Bet v I allergen protein: 22.18
  Signal Fold Change AT1G70890 major latex protein: 5.05
  Signal Fold Change AT1G71030 myb transcription factor (MYB2): 8.09
  Signal Fold Change AT1G71740, unknown biological function: 3.04
  Signal Fold Change AT1G72230 plastocyanin like protein: 2.98
  Signal Fold Change AT1G73220 sugar transporter protein: 5.76
  Signal Fold Change AT1G73300 serine carboxypeptidase S10 protein: 1.69
  Signal Fold Change AT1G73310 serine carboxypeptidase S10 protein: 4.07
  Signal Fold Change AT1G73330 protease inhibitor: 31.27
  Signal Fold Change AT1G73590 auxin efflux carrier protein: 2.03
  Signal Fold Change AT1G73640, small GTPase mediated signal transduction, Ras-related GTP-binding protein: 2.12
  Signal Fold Change AT1G73830 bHLH protein: 0.20
  Signal Fold Change AT1G75500, unknown biological function: 3.18
  Signal Fold Change AT1G76220, unknown biological function: 4.28
  Signal Fold Change AT1G76500, photomorphogenesis, DNA-binding protein: 0.38
  Signal Fold Change AT1G76540 cell division control protein: 2.97
  Signal Fold Change AT1G76790, unknown biological function: 3.71
  Signal Fold Change AT1G78240 dehydration-responsive protein: 0.54
  Signal Fold Change AT1G80380 phosphoribulokinase: 2.20
  Signal Fold Change AT2G01910, microtubule nucleation, microtubule associated protein (MAP65/ASE1) protein: 2.92
  Signal Fold Change AT2G02820 myb transcription factor (MYB88): 4.90
  Signal Fold Change AT2G02850 plantacyanin: 0.15
  Signal Fold Change AT2G16580 auxin-responsive protein: 2.29
  Signal Fold Change AT2G16990, unknown biological function: 3.14
  Signal Fold Change AT2G19590 ACC oxidase: 0.28
  Signal Fold Change AT2G19970, unknown biological function: 3.39
  Signal Fold Change AT2G20080, unknown biological function: 5.75
  Signal Fold Change AT2G20670, unknown biological function: 4.29
  Signal Fold Change AT2G21820, unknown biological function: 1.33
  Signal Fold Change AT2G21880 Ras-related GTP-binding protein: 4.62
  Signal Fold Change AT2G22860 phytosulfokines 2 (PSK2): 2.10
  Signal Fold Change AT2G24150 expressed protein (response to hormone stimulus): 1.90
  Signal Fold Change AT2G25900 zinc finger (CCCH-type) protein: 1.73
  Signal Fold Change AT2G26070 expressed protein (response to ethylene stimulus): 0.28
  Signal Fold Change AT2G26440 pectinesterase protein: 0.27
  Signal Fold Change AT2G26740 epoxide hydrolase: 0.26
  Signal Fold Change AT2G27140 heat shock protein: 2.74
  Signal Fold Change AT2G27370, unknown biological function: 2.51
  Signal Fold Change AT2G28305, unknown biological function: 2.57
  Signal Fold Change AT2G28410, unknown biological function: 2.79
  Signal Fold Change AT2G29340 short-chain dehydrogenase: 0.39
  Signal Fold Change AT2G29440, toxin catabolic process, glutathione S-transferase: 0.26
  Signal Fold Change AT2G30360 CBL-interacting protein kinase 11 (CIPK11): 3.63
  Signal Fold Change AT2G33380 calcium-binding RD20 protein: 0.22
  Signal Fold Change AT2G33990, unknown biological function: 2.69
  Signal Fold Change AT2G34300, unknown biological function: 0.39
  Signal Fold Change AT2G34500 cytochrome P450: 8.32
  Signal Fold Change AT2G34510, unknown biological function: 2.21
  Signal Fold Change AT2G34700, unknown biological function: 0.31
  Signal Fold Change AT2G35300 late embryogenesis abundant group 1 domain-containing protein: 2.86
  Signal Fold Change AT2G35710 glycogenin glucosyltransferase: 2.25
  Signal Fold Change AT2G36350 protein kinase: 0.54
  Signal Fold Change AT2G36410, unknown biological function: 3.05
  Signal Fold Change AT2G37130 peroxidase 21: 2.23
  Signal Fold Change AT2G38760, unknown biological function: 5.36
  Signal Fold Change AT2G38790, unknown biological function: 3.21
  Signal Fold Change AT2G39010 aquaporin: 1.95
  Signal Fold Change AT2G39310, unknown biological function: 3.40
  Signal Fold Change AT2G39980, unknown biological function: 0.25
  Signal Fold Change AT2G40420 amino acid transporter: 3.56
  Signal Fold Change AT2G41090, unknown biological function: 0.11
  Signal Fold Change AT2G41230, unknown biological function: 0.05
  Signal Fold Change AT2G42320, unknown biological function: 0.54
  Signal Fold Change AT2G43050 pectinesterase protein: 3.42
  Signal Fold Change AT2G43535 trypsin inhibitor: 6.32
  Signal Fold Change AT2G44110 seven transmembrane MLO protein: 0.43
  Signal Fold Change AT2G44130 kelch repeat containing F-box protein: 4.62
  Signal Fold Change AT2G47510 fumarate hydratase: 0.48
  Signal Fold Change AT2G47550 pectinesterase protein: 0.49
  Signal Fold Change AT2G48030, unknown biological function: 2.22
  Signal Fold Change AT3G04010 glycosyl hydrolase: 3.80
  Signal Fold Change AT3G05990, signal transduction, phosphodiesterase leucine-rich repeat protein: 2.33
  Signal Fold Change AT3G09020, unknown biological function: 3.42
  Signal Fold Change AT3G09780 protein kinase: 0.40
  Signal Fold Change AT3G10080, unknown biological function: 2.14
  Signal Fold Change AT3G10340 phenylalanine ammonia-lyase: 2.63
  Signal Fold Change AT3G11550, unknown biological function: 2.97
  Signal Fold Change AT3G12030, DNA repair, expressed protein: 2.06
  Signal Fold Change AT3G12500 basic endocexemplary inase: 3.58
  Signal Fold Change AT3G13980, unknown biological function: 6.58
  Signal Fold Change AT3G14370 protein kinase: 0.36
